# Laboratory results published in US12304890B2, “R-type pyridyloxycarboxylic acid, salt and ester derivative thereof, and preparation method therefor, and herbicidal composition and application thereof” (Qingdao Kingagroot Chemical Compound Co., Ltd., priority 2018, dated 2025).
# Tests used:
# Format in all cases: in vivo
# [1] = tested on: Echinochloa crusgalli; experiment: Post-emergence test experiment, Echinochloa crusgalli; details: 1000 g a.i./ha, 3 weeks in greenhouse, fresh weight inhibition
# Procedure: (§1) The above described growth inhibition rate is fresh weight inhibition rate.
# (§2) Post-emergence test experiment: Monocotyledonous and dicotyledonous weed seeds and main crop seeds (i. e. wheat, corn, rice, soybean, cotton, oilseed, millet and sorghum.) were put into a plastic pot loaded with soil. Then covered with 0.5-2 cm soil, the seeds were allowed to grow in good greenhouse environment. The test plants were treated at 2-3 leaf stage 2 weeks after sowing. The test compounds of the invention were dissolved with acetone respectively, then added with tween-80, and using 1.5 liters per hectare of an emulsible concentrate of methyl oleate as a synergist, and diluted by certain amount of water to certain concentration. The solution was sprayed to the plants with a sprayer. Then the plants were cultured for 3 weeks in the greenhouse, and the experiment result of weed controlling effect was listed in tables 4-5.
# [2] = tested on: Digitaria sanguinalis; experiment: Post-emergence test experiment, Digitaria sanguinalis; details: 1000 g a.i./ha, 3 weeks in greenhouse, fresh weight inhibition
# Procedure: as §1, §2
# [3] = tested on: Monocotyledonous and dicotyledonous weed seeds and main crop seeds; experiment: Post-emergence test experiment, other weeds and crops (Table 4, 1000 g a.i./ha); details: 3 weeks in greenhouse, fresh weight inhibition
# Method in brief: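 Weed and crop seeds (wheat, corn, rice, soybean, cotton, oilseed, millet, sorghum) sown in soil pots in a greenhouse and sprayed at 2-3 leaf stage, 2 weeks after sowing. Compound in acetone/tween-80 with methyl oleate concentrate (1.5 L/ha) as synergist. Effect recorded as fresh-weight growth inhibition rate.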
Structure (SMILES),"Activity level (growth inhibition rate), Echinochloa crusgalli [1]","Activity level (growth inhibition rate), Digitaria sanguinalis [2]","Activity level (growth inhibition rate), Abutilon theophrasti Medic. [3]","Activity level (growth inhibition rate), Galium aparine [3]","Activity level (growth inhibition rate), Monochoria Vaginalis [3]"
CCCCCCCCCCSC(=O)[C@@H](C)Oc1nc(F)c(Cl)c(N)c1Cl [Compound 2-196],5 (Level 5: the growth inhibition rate is greater than 85%),5 (Level 5: the growth inhibition rate is greater than 85%),5 (Level 5: the growth inhibition rate is greater than 85%),5 (Level 5: the growth inhibition rate is greater than 85%),5 (Level 5: the growth inhibition rate is greater than 85%)
COCCOC(=O)C(C)Oc1nc(C)c(Cl)c(N)c1Cl (centres unmarked) [Compound 2-270],5 (Level 5: the growth inhibition rate is greater than 85%),5 (Level 5: the growth inhibition rate is greater than 85%),5 (Level 5: the growth inhibition rate is greater than 85%),5 (Level 5: the growth inhibition rate is greater than 85%),5 (Level 5: the growth inhibition rate is greater than 85%)
C[C@@H](Oc1nc(F)c(Cl)c(N)c1Cl)C(=O)SCc1ccccc1C#N [Compound 2-334],5 (Level 5: the growth inhibition rate is greater than 85%),5 (Level 5: the growth inhibition rate is greater than 85%),5 (Level 5: the growth inhibition rate is greater than 85%),5 (Level 5: the growth inhibition rate is greater than 85%),5 (Level 5: the growth inhibition rate is greater than 85%)
CC(Oc1nc(F)c(Cl)c(N)c1Cl)C(=O)[S-].CC(Oc1nc(F)c(Cl)c(N)c1Cl)C(=O)[S-].[Ca+2] (centres unmarked) [Compound 2-2],5 (Level 5: the growth inhibition rate is greater than 85%),5 (Level 5: the growth inhibition rate is greater than 85%),5 (Level 5: the growth inhibition rate is greater than 85%),5 (Level 5: the growth inhibition rate is greater than 85%),5 (Level 5: the growth inhibition rate is greater than 85%)
CC(C)CCOC(=O)[C@@H](C)Oc1nc(F)c(Cl)c(N)c1Cl [Compound 2-89],5 (Level 5: the growth inhibition rate is greater than 85%),5 (Level 5: the growth inhibition rate is greater than 85%),5 (Level 5: the growth inhibition rate is greater than 85%),5 (Level 5: the growth inhibition rate is greater than 85%),5 (Level 5: the growth inhibition rate is greater than 85%)
C#CCSC(=O)C(C)Oc1nc(F)c(Cl)c(N)c1Cl (centres unmarked) [Compound 2-274],5 (Level 5: the growth inhibition rate is greater than 85%),5 (Level 5: the growth inhibition rate is greater than 85%),5 (Level 5: the growth inhibition rate is greater than 85%),5 (Level 5: the growth inhibition rate is greater than 85%),5 (Level 5: the growth inhibition rate is greater than 85%)
C[C@@H](Oc1nc(F)c(Cl)c(N)c1Cl)C(=O)OCc1ccsc1 [Compound 2-351],5 (Level 5: the growth inhibition rate is greater than 85%),5 (Level 5: the growth inhibition rate is greater than 85%),5 (Level 5: the growth inhibition rate is greater than 85%),5 (Level 5: the growth inhibition rate is greater than 85%),5 (Level 5: the growth inhibition rate is greater than 85%)
CC(Oc1nc(F)c(Cl)c(N)c1Cl)C(=O)OC1CCCC1 (centres unmarked) [Compound 2-265],5 (Level 5: the growth inhibition rate is greater than 85%),5 (Level 5: the growth inhibition rate is greater than 85%),5 (Level 5: the growth inhibition rate is greater than 85%),5 (Level 5: the growth inhibition rate is greater than 85%),5 (Level 5: the growth inhibition rate is greater than 85%)
C[C@@H](Oc1nc(F)c(Cl)c(N)c1Cl)C(=O)OCCBr [Compound 2-278],5 (Level 5: the growth inhibition rate is greater than 85%),5 (Level 5: the growth inhibition rate is greater than 85%),5 (Level 5: the growth inhibition rate is greater than 85%),5 (Level 5: the growth inhibition rate is greater than 85%),5 (Level 5: the growth inhibition rate is greater than 85%)
CC(Oc1nc(F)c(Cl)c(N)c1Cl)C(=O)SCc1cccc(Br)c1 (centres unmarked) [Compound 2-323],5 (Level 5: the growth inhibition rate is greater than 85%),5 (Level 5: the growth inhibition rate is greater than 85%),5 (Level 5: the growth inhibition rate is greater than 85%),5 (Level 5: the growth inhibition rate is greater than 85%),5 (Level 5: the growth inhibition rate is greater than 85%)
C[C@@H](Oc1nc(F)c(Cl)c(N)c1Cl)C(=O)OCc1ccncc1 [Compound 2-344],5 (Level 5: the growth inhibition rate is greater than 85%),5 (Level 5: the growth inhibition rate is greater than 85%),5 (Level 5: the growth inhibition rate is greater than 85%),5 (Level 5: the growth inhibition rate is greater than 85%),5 (Level 5: the growth inhibition rate is greater than 85%)
C[C@@H](Oc1nc(F)c(Cl)c(N)c1Cl)C(=O)SCc1ccc(C(F)(F)F)cc1 [Compound 2-332],5 (Level 5: the growth inhibition rate is greater than 85%),5 (Level 5: the growth inhibition rate is greater than 85%),5 (Level 5: the growth inhibition rate is greater than 85%),5 (Level 5: the growth inhibition rate is greater than 85%),5 (Level 5: the growth inhibition rate is greater than 85%)
C[C@@H](Oc1nc(F)c(Cl)c(N)c1Cl)C(=O)OCc1cccc2ccccc12 [Compound 2-341],5 (Level 5: the growth inhibition rate is greater than 85%),5 (Level 5: the growth inhibition rate is greater than 85%),5 (Level 5: the growth inhibition rate is greater than 85%),5 (Level 5: the growth inhibition rate is greater than 85%),5 (Level 5: the growth inhibition rate is greater than 85%)
C[C@@H](Oc1nc(F)c(Cl)c(N)c1Cl)C(=O)SCC(C)(C)C [Compound 2-92],5 (Level 5: the growth inhibition rate is greater than 85%),5 (Level 5: the growth inhibition rate is greater than 85%),5 (Level 5: the growth inhibition rate is greater than 85%),5 (Level 5: the growth inhibition rate is greater than 85%),5 (Level 5: the growth inhibition rate is greater than 85%)
C[C@@H](Oc1nc(F)c(Cl)c(N)c1Cl)C(=O)OCC(C)(C)C [Compound 2-91],5 (Level 5: the growth inhibition rate is greater than 85%),5 (Level 5: the growth inhibition rate is greater than 85%),5 (Level 5: the growth inhibition rate is greater than 85%),5 (Level 5: the growth inhibition rate is greater than 85%),5 (Level 5: the growth inhibition rate is greater than 85%)
CC(Oc1nc(F)c(Cl)c(N)c1Cl)C(=O)OCCN (centres unmarked) [Compound 2-284],5 (Level 5: the growth inhibition rate is greater than 85%),5 (Level 5: the growth inhibition rate is greater than 85%),5 (Level 5: the growth inhibition rate is greater than 85%),5 (Level 5: the growth inhibition rate is greater than 85%),5 (Level 5: the growth inhibition rate is greater than 85%)
